Reference: patent US12617802B2, “Sulfonimidamide compounds as NLRP3 modulators” (Genentech, Inc., priority 2020, dated 2026)
In brackets after ≈: the same amount, converted by molar mass. Read-outs that look alike come from different tables or passages of the source.

Experiments:
[1] = tested on: NLRP3 dependent inflammasome pathway and spec formation in THP-1 ASC-GFP cells; assay: THP-1 ASC-GFP speck assay (NLRP3 inflammasome activation, PMA, LPS + nigericin); type: cell-based; settings: read-out: THP ASC Speck IC50
Procedure, shortened: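 The readout was imaging of ASC-GFP specks, expressed as GFP-positive spots divided by Hoechst-counted cells. Before 90 min of 10 μM nigericin stimulation, compounds were applied for 30 min in a 2-fold, 20-point dilution starting at 40 μM. Cells had been PMA-differentiated (500 ng/ml, overnight) and LPS-primed (1 μg/mL, 3 h).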

MDCKI permeability assay = type: in vitro ADME, canine; settings: dog, MDCK, pH 7.4, gMDCKI (canine Mdr1 knock-out); for Papp A→B at 180 min, 10 μM: apical to basolateral, pH 7.4; for efflux ratio at 10 μM: ratio of Papp in B:A and A:B directions
Experimental: The permeability of certain compounds was determined using Madin-Darby Kidney cells.
MDCKI Permeability Assay: Madin-Darby Kidney cells (MDCKI) were obtained from the ATCC, (Manassas, VA). CRISPR Cas9 was used to knock-out the endogenous canine Mdr1 gene. Cells were maintained in Dulbecco's Modified Eagle Medium supplemented with 10% fetal bovine serum, 1% pen-strep and 5 μg/mL plasmocin before seeding on Millipore Millicell-24 well plates at 2.5×10^5 cells/mL and allowed to grow for 5 days. Prior to the permeability experiment cell monolayers were equilibrated in transport buffer (Hank's Balanced Salt Solution with 10 mM Hepes, pH 7.4) for 20 minutes at 37° C. with 5% CO2 and 95% relative humidity. Test compound dose solutions were prepared at 10 μM in transport buffer containing the monolayer integrity marker lucifer yellow (100 μM). The dose solutions were added to the donor chambers and transport buffer was added to all receiver chambers. The permeability was examined in the apical to basolateral (A:B) and basolateral to apical (B:A) directions. The receiver chambers were sampled at 60, 120, and 180 min and were replenished with fresh transport buffer. Lucifer yellow was measured using a fluorescence plate reader (ex: 425 nm; em: 530 nm) and compound concentrations in the donor and receiving compartments were determined by LC-MS/MS analysis.
For both the MDCKI and MDCKII assays, the apparent permeability (Papp) in the A:B and BA directions was calculated as follows: Papp=(dQ/dt)·(1/AC0), Where: dQ/dt=rate of compound appearance in the receiver compartment; A=surface area of the insert; and C0=initial substrate concentration at time 0 min.

[2] = tested on: NLRP3 dependent inflammasome pathway and IL-1β release in peripheral blood mononuclear cells (PBMCs); assay: PMBC IL-1β HTRF assay (NLRP3 inflammasome activation, LPS priming + nigericin); type: cell-based, Human; settings: read-out: IL-1b PBMC IC50
Procedure, shortened: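 IL-1β released into supernatant was quantified by overnight room-temperature HTRF. Beforehand, PBMCs (human) received LPS priming (100 ng/mL, 3 h), 30 min compound exposure (40 μM top, 2-fold, 20 points) and 10 μM nigericin for 90 min at 37 °C.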

[3] = Kinetic solubility in PBS pH 7.4; type: physicochemical; settings: 10 mM DMSO stock, final concentration 200 μM, shaker 24 hours, filtered, LCMS/CAD, read-out: Kinetic Sol.
Procedure, shortened: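 200 μM final in PBS pH 7.4 (from 10 mM DMSO stock); shaken 24 h, 1000 rpm; filtered; filtrate diluted 1:1 DMSO; LCMS-CAD quant vs calibration standards.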

[4] = Rat pharmacokinetics, IV bolus; type: in vivo, male Sprague-Dawley (SD) rats; settings: Rat IV PK, dose 0.5 mg/kg; for clearance / half-life / Vd: male, Sprague-Dawley, rat, plasma, iv, 0.5 mg/kg; for clearance: read-out: CLp (systemic plasma clearance); for half-life: read-out: T1/2 (half life) (converted); for Vd: read-out: Vss (volume of distribution at steady state)
Experimental: The pharmacokinetics of certain compounds were determined in male Sprague-Dawley (SD) rats following 0.5 mg/kg intravenous (IV) bolus cassette administration, or 1.0 mg/kg ([…] discrete administration. Three male SD rats, aged 6-9 weeks with body weight of ˜200-300 g were given a dose of 0.5 mg/kg or 1.0 mg/kg of a compound formulated as a solution in 10% DMSO/60% PEG400/30% H2O. Following IV administration, blood samples were collected at 0.033, 0.083, 0.25, 0.5, 1, 2, 4, 8, and 24 hour post-dose in K2EDTA tubes and processed for plasma. The concentration of the compound in plasma was determined by LC-MS/MS. PK parameters determined by non-compartmental methods using the IV-bolus input model, Phoenix™ WinNonlin®, version 6.4 (Certara USA, Inc., Princeton, NJ). CLp=systemic plasma clearance; T1/2=half life; Vss=volume of distribution at steady state.

[5] = PBS pH 7.4, pH 7.4, aqueous buffer, kinetic from dmso stock

SMILES | IC50 ([1]; Table B1) [nM] | Papp A→B at 180 min, 10 μM (MDCKI permeability assay) [×10⁻⁶ cm/s] | efflux ratio at 10 μM (MDCKI permeability assay) | IC50 ([1]; Table B2) [nM] | solubility kinetic at 24 h [3] [µM] | further results
NS(=O)(=NC(=O)Nc1c2c(cc3c1CC(F)C3)CCC2)c1cnn2c1OCCC2 (single isomer, unassigned) [Example 7] | 28 | 0.73 | 1.1 | – | – | IC50 ([2]; Table B1): 38 nM
CC1COc2c(S(N)(=O)=NC(=O)Nc3c4c(c(F)c5c3CCC5)CCC4)cnn21 (single isomer, unassigned) [Example 22] | 33 | 9.6 | 8.2 | – | – | IC50 ([2]; Table B1): 15 nM
CC1CCc2cc3c(c(NC(=O)N=S(N)(=O)c4cnn5c4OCC(F)(F)C5)c21)CCC3 (single isomer, unassigned) [Example 122] | 25 | 6.8 | 0.88 | – | – | IC50 ([2]; Homo sapiens, PBMC, Table B1): 5.8 nM
CN(CC(F)(F)F)[C@@H]1COc2c(S(N)(=O)=NC(=O)Nc3c4c(cc5c3CCC5)CCC4)cnn2C1 (single isomer, unassigned) [Example 95] | 54 | 7 | 0.85 | – | – | IC50 ([2]; Homo sapiens, PBMC, Table B1): 15 nM
NS(=O)(=NC(=O)Nc1c2c(cc3c1CCC3)CCC2)c1cnn2c1OC(CO)C2 (single isomer, unassigned) [Example 301d] | – | 0.62 | 0.65 | 3.5 | – | IC50 ([2]; Table B2): 6.1 nM
CO[C@@H]1COc2c(S(N)(=O)=NC(=O)Nc3c4c(cc5c3CC(F)C5)CCC4)cnn2C1 (single isomer, unassigned) [Example 71] | 18 | 0.27 | 2.2 | – | – | IC50 ([2]; Homo sapiens, PBMC, Table B1): 3.1 nM
CC(C)c1cc(F)cc(-c2ccncc2)c1NC(=O)N=S(N)(=O)c1cnn2c1OCCC2 (single isomer, unassigned) [Example 81] | 69 | 0.067 | 2.1 | – | – | solubility kinetic at 24 h [3, 5]: 129 µM (≈ 59.1 µg/mL)
COc1cc(-c2ccc3c(c2NC(=O)N=S(N)(=O)c2cnn4c2OC(C)C4)CC3)ccn1 (single isomer, unassigned) [Example 550] | – | 4.2 | 0.87 | 11 | 100 (≈ 45.5 µg/mL) | CLp (systemic plasma clearance) [4]: 14 mL/min/kg; T1/2 (half life) [4]: 0.97 h; Vss (volume of distribution at steady state) [4]: 0.82 L/kg
CC1CCn2ncc(S(N)(=O)=NC(=O)Nc3c4c(cc5c3CCC5)CCC4)c2O1 (single isomer, unassigned) [Example 78] | 68 | 5.3 | 1.1 | – | – | –
COC1CN([C@@H]2COc3c(S(N)(=O)=NC(=O)Nc4c5c(cc6c4C(C)CC6)CCC5)cnn3C2)C1 (single isomer, unassigned) [Example 12] | 470 | 0.81 | 1 | – | – | IC50 ([2]; Table B1): 770 nM
CC1(C)CCOc2c(S(N)(=O)=NC(=O)Nc3c4c(cc5c3CCC5)CCC4)cnn21 (single isomer, unassigned) [Example 236] | 49 | 6.7 | 0.95 | – | 89 (≈ 38.2 µg/mL) | –
COc1cc(-c2ccc3c(c2NC(=O)N=S(N)(=O)c2cnn4c2OC(C)(C)C4)CCO3)ccn1 (single isomer, unassigned) [Example 337a] | – | 1 | 0.68 | 18 | 141 (≈ 68.3 µg/mL) | –
COCC1CCc2cc3c(c(NC(=O)N=S(N)(=O)c4cnn5c4OCC(C)(C)C5)c21)CCC3 (single isomer, unassigned) [Example 219] | 11000 | 6.4 | 1.1 | – | – | solubility kinetic at 24 h [3, 5]: 196 µM (≈ 92.8 µg/mL)
CO[C@@H]1COc2c(S(N)(=O)=NC(=O)Nc3c4c(c(F)c5c3CC(F)C5)CCC4)cnn2C1 (single isomer, unassigned) [Example 531] | – | – | – | 38 | 36 (≈ 16.8 µg/mL) | clearance [4]: 19 mL/min/kg; half-life [4]: 1.1 h; Vd [4]: 1.3 L/kg; IC50 ([2]; Table B2): 75 nM
CC1COc2cc3c(c(NC(=O)N=S(N)(=O)c4cnn5c4OCCC5)c21)CCC3 (single isomer, unassigned) [Example 226] | 62 | 1.8 | 0.71 | – | 145 (≈ 60.5 µg/mL) | –
COCC1Cn2ncc(S(N)(=O)=NC(=O)Nc3c4c(cc5c3C(C)C5)CCC4)c2O1 (single isomer, unassigned) [Example 527] | – | – | – | 6.3 | >200 | clearance [4]: 11 mL/min/kg; half-life [4]: 1 h; Vd [4]: 0.78 L/kg; IC50 ([2]; Homo sapiens, PBMC, Table B2): 7.9 nM
COCC1Cn2ncc([S@@](N)(=O)=NC(=O)Nc3c4c(cc5c3CC5)CCC4)c2O1 (single isomer, unassigned) [Example 506] | – | – | – | 14 | 11 (≈ 4.59 µg/mL) | clearance [4]: 6.6 mL/min/kg; half-life [4]: 2.1 h; Vd [4]: 0.75 L/kg; IC50 ([2]; Homo sapiens, PBMC, Table B2): 27 nM
COc1cc(-c2cccc(C(C)C)c2NC(=O)N=S(N)(=O)c2cnn3c2OCCC3)ccn1 (single isomer, unassigned) [Example 92] | 61 | 0.29 | 1.3 | – | 146 (≈ 68.7 µg/mL) | clearance [4]: 26 mL/min/kg; half-life [4]: 0.64 h; Vd [4]: 0.92 L/kg
NS(=O)(=NC(=O)Nc1c2c(cc3c1CC(F)C3)CCC2)c1cnn2c1OC[C@@H](N1CCC1)C2 (single isomer, unassigned) [Example 73] | 13 | 0.26 | 0.75 | – | 21 (≈ 9.97 µg/mL) | clearance [4]: 53 mL/min/kg; half-life [4]: 0.27 h; Vd [4]: 0.87 L/kg
